By melting point is commonly meant the temperature, or range, at which the solid turns liquid.

`CC(=O)NC[C@H]1CN(c2ccc3c(c2)CCC(C)N3)C(=O)O1` (stereo not given in full) registered a melting point of 158 to 159 °C.

In turn, `O=C(O)COc1ccc(Cn2nnc(-c3cccc(C#CCc4ccc(F)cc4)c3)n2)cc1` yielded a melting point of 158 to 160 °C.

With `CCOC(=O)C(C)(C)n1c(=O)[nH]c2c(OC)cccc2c1=O`, the melting point lay within 144 to 145 °C.

Turning to `CCCCc1c(OCOC(=O)C(C)(C)C)n(-c2ccccc2)n(-c2ccccc2)c1=O`, the melting point lay within 83 to 85 °C.

For `COC(C)(CC(=O)NC12CC3CC(CC(C3)C1)C2)OC`, the melting point turned out to be 140 °C.

In the case of `Nc1sc2c(c1C(=O)c1ccc(Br)s1)CCN(Cc1ccccc1)C2`, the melting point lay within 87 to 89 °C.

Regarding `COC(=O)c1cccc(C2C(C#N)=C(N)Oc3c2ccc2cnccc32)c1` (stereo not given), the melting point lay in the range of 229 to 230 °C.

Consider `O=Cc1cn(Cc2ccccc2)nc1OCc1ccccc1`, for which the melting point was 85 to 86 °C.

Compound `CC(Cc1ccccc1)(NC=O)c1ccccc1` (stereo not given) registered a melting point of 97 to 99 °C.

Compound `COC(=O)c1nc(OC)sc1-c1ccccc1` gave a melting point of 86 to 88 °C.

For `Cc1ccc(-c2coc(-c3ccc4c(c3)C(C)(C)CCC4(C)C)c2)cc1`, the melting point lay within 155 to 157 °C.

For the compound `COc1ccccc1C(=O)c1c(SC)nn(-c2c(Cl)cc(Cl)cc2Cl)c1N`, the melting point was 200 to 202 °C.

On to `COC(=O)c1ccc(S(C)(=O)=O)c(C=NO)c1C`, for which the melting point was in the range of 123 to 129 °C.

As for `NC(=O)N(O)Cc1cccc2ccsc12`, the melting point was 138 to 140 °C.

As for `CCCC1Sc2nncn2N=C1c1ccc2c(c1)NC(=O)CO2` (stereo not given), the melting point was 235 to 237 °C.

`NS(=O)(=O)c1ccc2cc(O)c(O)cc2c1` returned a melting point of 218 to 228 °C.

Consider `O=C(O)c1cnc2cnc3ccccc3n2c1=O`, for which the melting point was 216 to 218 °C.

Compound `CC1Cc2ccc(N3C(=O)C4=C(CCCC4)C3=O)cc2O1` (stereo not given) came in with a melting point of 114 to 118 °C.

In the case of `Cn1c(=O)n(Cc2ccc(F)cc2)c(=O)c2cc(C(=O)c3nc(Br)c4ccccn34)ccc21`, the melting point amounted to 280 °C.

In turn, `CC(C)N=c1[nH]c2ccc(Cl)cc2c2nc(-c3ccco3)nn12` registered a melting point of 140 to 141 °C.

`CSCC(=O)N(C)C(C)=Nc1cn(-c2cccnc2)nc1C` came in with a melting point of 54 to 57 °C.

Regarding `O=C(OCc1ccccc1)[C@@H]1CCCN1C(=O)CNC1Cc2ccccc2C1`, the melting point fell in the range of 96 to 98 °C.

Consider `CC(C)C(=O)C[C@@H](O)C(=O)O`, for which the melting point was 67 to 68 °C.

Compound `Fc1ccc(-c2cc(-c3ccccc3)c(-c3ccccc3)s2)cc1` yielded a melting point of 108 to 110 °C.

`CN[C@@H]1COc2cc(Cl)ccc2O1` had a melting point of 70 to 71 °C.

The compound `COC(=O)c1ccc(C(=O)NS(=O)(=O)c2ccc(CCNC(=O)c3cc(Cl)ccc3OC)cc2)cn1` came in with a melting point of 233 °C.

`COc1cc2nc(C(=O)Nc3cc(C)cc(C)n3)[nH]c2cc1OC`: the melting point was 256 °C.

With `N#Cc1ccc(CCNC(=O)CC(=O)O)cc1`, the melting point lay within 137 to 139 °C.

`Cc1nc(SCC(N)=O)nc(C)c1Br` came in with a melting point of 175 to 177 °C.

Take `Cc1ccc(COCc2c(C(C)C)cc(C(C)C)c(C(C)O)c2-c2ccc(F)cc2)cc1` (single isomer, unassigned; (+)): the melting point lay in the range of 84 to 86 °C.

For `Brc1ccc(OCc2ccc3ccccc3c2)cc1`, the melting point was 104 to 106 °C.

For `O=C(NCCN1CCC(Nc2nc3ccccc3n2Cc2ccc(F)cc2)CC1)c1cc2ccccc2[nH]1`, the melting point came out at 232 °C.

The compound `CCN(CC)C(=O)COC(=O)CCc1cc(S(C)(=O)=O)cc(-c2nc(=O)c3ccc(Cl)cc3s2)n1` yielded a melting point of 179 to 180 °C.

Consider `Fc1cccc(CSc2nnc(-c3ccc4nccn4c3)o2)c1`, for which the melting point was in the range of 173 to 174 °C.

In turn, `CCOC(=O)c1c(S)nc2cc(OC)c(OC)cc2c1-c1ccc(OC)c(OC)c1` displayed a melting point of 265 to 266 °C.

Turning to `COc1ccc(C2=NC(NC(=O)Nc3ccc(C(=O)c4ccccc4)cc3)c3nnc(C)n3-c3ccccc32)cc1` (stereo not given), the melting point is 225 °C.

Consider `Cc1nc(C(=O)NCCO[N+](=O)[O-])co1`, for which the melting point was in the range of 106 to 108 °C.

Compound `c1ccc2c(c1)nnn2CSCn1nnc2ccccc21` displayed a melting point of 179 to 181 °C.

`C/C(=C\CO)c1ccc(OCc2nc(-c3ccccc3)oc2C)cc1` returned a melting point of 126 to 127 °C.

Take `COC(=O)Nc1cccc(C)c1COc1cccn2c(C)c(C)nc12`: the melting point lay in the range of 176 to 177 °C.

The compound `COc1cccc(C(O)c2cc3ccccc3s2)c1` (stereo not given) returned a melting point of 63 to 65 °C.

Take `CC(=O)CC(=O)N[C@@H](CC(=O)O)C(=O)O`: the melting point lay within 127 to 130 °C.

For `Clc1cc(Cl)cc(C2=NOCCS2)c1`, the melting point lay in the range of 88 to 89 °C.

The compound `Cc1ccc(NC(=O)NCc2cccc3c2C(=O)N(C2CCC(=O)NC2=O)C3=O)cc1Cl` (stereo not given) displayed a melting point of 238 to 240 °C.

`CCCN(CCC)[C@H]1Cc2c[nH]c3ccc(-c4cccnc4)c(c23)C1` yielded a melting point of 185 to 186 °C.

As for `CC1CC2C3CCC4=CC(=O)CCC4=C3CCC2(C)C1O` (stereo not given), the melting point lay in the range of 146 to 148 °C.

With `CC(C)C(NC(=O)c1ccccc1)C(=O)O` (racemic), the melting point was in the range of 125 to 128 °C.

`O=C(Nc1ccc(C(F)(F)F)cc1)c1ccc(C=NO)cc1` gave a melting point of 221 to 222 °C.

`O=c1oc(-c2ccc3c(c2)OCCO3)cc(O)c1SCc1ccccc1`: the melting point fell in the range of 192 to 193 °C.

Take `CSc1nc(-c2cc(C(C)(C)C)c(O)c(C(C)(C)C)c2)c(-c2ccccc2)[nH]1`: the melting point lay in the range of 129 to 131 °C.

As to `COc1ccc(CCOCC(=O)O)cc1`, the melting point was 82 to 84 °C.

As to `CCN(CC)CCNc1cccc2c1C(=O)c1c(NCCN(CC)CC)cccc1C2=O`, the melting point was in the range of 104 to 106 °C.

Take `O=C(O)CCCCCNC(=O)Cc1ccsc1`: the melting point was 78.6 to 79.5 °C.

With `Fc1ccc(C23COC(c4ccc(Cl)cc4)(OC2)OC3)cc1`, the melting point was 251 to 252 °C.

The compound `O=C1CCCc2snc(Cl)c21` displayed a melting point of 84 to 85 °C.

For `O=S(=O)(c1cccs1)N(CC(F)(F)F)c1cccc2cc(-c3nccs3)[nH]c12`, the melting point fell in the range of 194 to 195 °C.

The compound `Clc1ccc(N=Cc2ccc(Cl)c3cc(Cl)cnc23)c(Cl)c1` came in with a melting point of 156 °C.

Turning to `COc1ccc(N2CCOCC2)c2sc(-c3nc4c([nH]3)CCN(C(C)=O)C4)nc12`, the melting point was 155 to 157 °C.

Take `CCS(=O)(=O)N(C(C)=O)c1cc(-c2ncnc(C(F)(F)F)c2Cl)c(F)cc1C#N`: the melting point was in the range of 144 to 146 °C.

In turn, `O=C(OCc1ccccc1)C(C(=O)N1CC2C(=O)CCC(c3ccccc3)(c3ccccc3)C2C1)c1ccccc1` (racemic) returned a melting point of 210 °C.

As to `CNC(=S)N(Cc1ccc(Cl)nc1)CC(F)(F)F`, the melting point fell in the range of 98 to 100 °C.

`CC(=O)NCc1ccn(-c2cc3c(cc2C(F)(F)F)[nH]c(=O)c(=O)n3CC(=O)O)c1`: the melting point lay in the range of 250 to 251 °C.

`CC(=O)NCc1nc2c(N)nc(C)c(C)c2n1CC(C)C` had a melting point of 162 to 164 °C.

`S=C1N=c2ccc(OCCN3CCC(Cc4ccc(Cl)cc4)CC3)cc2=N1` had a melting point of 291 to 293 °C.

On to `CCN(CC)Cc1ccc(N=C2NCCN2)c(Cl)c1`, for which the melting point fell in the range of 113 to 115 °C.

The values above are taken from a melting point compilation (Tetko et al.; mined from patent text by program, amines drawn as free bases though some values may be those of a salt).
